Assay [1] has as its system Capsella bursa-pastoris. Kind of assay: Pot-culture greenhouse foliage treatment, fresh weight inhibition (Gowing method). The format is in vivo. The note with it: foliage spray. On the procedure: (§1) The above weeds were cultivated by a pot culture method. […] Full and uniform weed seeds were selected, soaked in warm water at 25° C. for 6 hours, and germinated in a 28° C. biochemical incubator (darkness). […] A certain amount of water was added to the enamel pan regularly to keep the soil moist.
(§2) Since these several agents were soluble in acetone, any two TCs were dissolved in acetone, and diluted with an aqueous solution containing 0.1% emulsifier T-80. The dilution was performed as required.
(§3) A ratio of glufosinate ammonium or glyphosate and shuangzuocaotong and amounts thereof in each group depends on the characteristics and toxicity of the two agents, as well as the main application purpose of a corresponding formulation. Glyphosate is a non-selective herbicide and is absorbed by foliage and translocated to various parts of the plant, which is different from the mechanism of action of glufosinate ammonium, i.e., killing roots. […] The control spectrum of Shuangzuocaotong is complementary to that of glyphosate or that of glufosinate ammonium to some extent. […] Based on the pre-tests in this study, the doses of glyphosate, glufosinate ammonium, and Shuangzuocaotong applied alone and in combination were shown in the Table 1 and Table 2, and a total 15 groups were designed, respectively. Water containing the solvent and emulsifying agent same with the above groups but free of the agents was used as a blank control.
(§4) 3 pots with 20 weed seeds per pot were treated in one treatment with […] per treatment, that is, a total of 60 weeds were treated in one treatment.
(§5) The agents were used for only once in the experiment. In the stage of weeds with 2 leaves and 1 core, the weeds were thinned out to maintain 15 weeds per pot and 45 weeds for each treatment, then continued to be cultured until the four true leaves of Descurainia sophia and Capsella bursa-pastoris emerged, and treated.
(§6) The well-cultured weeds were evenly placed on a platform with an area of 0.5 m^2, and a solution of agents was sprayed on the foliage thereof by the 3WP-2000-type walking spray tower at a dosage of 30 kg/ha and at a spray pressure of 0.3 MPa. After all the solution was sprayed, the valve was closed. After 30 seconds, the door of the spray tower was opened, and the nutritional bowl was taken out. Then the valve was opened, and the spray tube was cleaned by spraying 50 ml of water.
(§7) A pot-culture method was employed. For the cultivation of weeds, please refer to the Section 1.1, and “Pesticide guidelines for laboratory bioactivity tests—herbicides”. As to a method for applying agents, please refer to the section 2.3.2, that is, a method for foliage treatment was employed.
(§8) A method for investigating absolute number was employed, wherein whole seedlings of survival weeds were cut off with a blade along the soil surface, and the fresh weight of the weeds was weighed with an analytical balance. For dead weeds, the fresh weight thereof was zero.
(§9) The investigation was performed after 20 days of the treatment for only once.

The subject of assay [2] is Descurainia Sophia. Described as above. The assay is classed as in vivo. The note with it: foliage spray. The protocol:
as §1, §2, §3, §4, §5, §6, §7, §8, §9

Where [3] appears, read: dose 1125 g/hm^2, after 20 days.
Setting [4] is: dose 67.5 g/hm^2, after 20 days (Table 2).
Setting [5] is: dose 90 g/hm^2, after 20 days (Table 2).
The mark [6] stands for this setting: dose 112.5 g/hm^2, after 20 days (Table 2).

As for `O=C(O)CNCP(=O)(O)O` [glyphosate, N-(phosphonomethyl)glycine], the “actual fresh weight inhibition rate” value in assay [1] (dose 675 g/hm^2, after 20 days) worked out at 53.2%; in assay [1] (dose 900 g/hm^2, after 20 days), 74.6%; in assay [1] (setting [3]), 92.4%; in assay [2] (dose 675 g/hm^2, after 20 days), 55.2%; in assay [2] (dose 900 g/hm^2, after 20 days), 73.1%; in assay [2] (setting [3]), 91.4%.

Turning to `Cc1nn(C)cc1C(=O)Oc1c(C(=O)c2ccc(C(F)(F)F)cc2S(C)(=O)=O)c(C)nn1C` [Shuangzuocaotong], the “actual fresh weight inhibition rate” value in assay [1] (dose 15 g/hm^2, after 20 days) worked out at 53.2%; in assay [1] (dose 30 g/hm^2, after 20 days), 75.2%; in assay [1] (dose 45 g/hm^2, after 20 days) it was 91.3%; in assay [1] (setting [4]), 54.1%; in assay [1] (setting [5]), 72.4%; in assay [1] (setting [6]), 93.5%. Also, the “actual fresh weight inhibition rate” value in assay [2] (dose 15 g/hm^2, after 20 days) is on record as 54.2%; in assay [2] (dose 30 g/hm^2, after 20 days) it was 76.2%; in assay [2] (dose 45 g/hm^2, after 20 days), 90.2%; in assay [2] (setting [4]) it was 53.3%; in assay [2] (setting [5]), 74.3%; in assay [2] (setting [6]), 86.2%.

On to `CP(=O)(O)CCC(N)C(=O)O.N` (racemic) [Glufosinate ammonium, ammonium-DL-homoalanin-4-yl(methyl)phosphinate], for which the “actual fresh weight inhibition rate” value in assay [1] (dose 300 g/hm^2, after 20 days) is recorded as 48.2%; in assay [1] (dose 450 g/hm^2, after 20 days) it was 73.2%; in assay [1] (dose 600 g/hm^2, after 20 days) it was 93.5%; in assay [2] (dose 300 g/hm^2, after 20 days), 49.8%; in assay [2] (dose 450 g/hm^2, after 20 days) it was 71.6%; in assay [2] (dose 600 g/hm^2, after 20 days), 92.6%.

The values are drawn from patent US20190216089A1, “COMPOUNDED HERBICIDAL COMPOSITION CONTAINING SHUANGZUOCAOTONG AND METHOD OF USING THE SAME” (priority 2016, published 2019).
